From article PMC8040252, “1,2,4-Oxadiazole-Bearing Pyrazoles as Metabolically Stable Modulators of Store-Operated Calcium Entry” (ACS Medicinal Chemistry Letters, 2021)
Marks after values point to notes of the source that are not given here.

Key:
[1] = In vitro hepatic metabolic stability in MLS9 fraction with NADPH; assay type: in vitro ADME, mouse; settings: after 1 h of incubation
Procedure: The five selected inhibitors (22, 27, 29, 32, and 42) and the identified SOCE enhancer (37) were then evaluated for their in vitro hepatic metabolic stability. To this aim, the candidates were incubated in MLS9 fraction supplied with NADPH and the residual substrate was measured after 1 h. Under these conditions, the oxadiazole-bearing pyrazoles resulted overall metabolically stable, with only two compounds affording a residual substrate lower than 80% and the remaining molecules higher than 90% after incubation (Table 1 and Supporting Information). In contrast, Pyr3 and CIC-37, which suffered from hydrolysis of the ester function, provided a residual substrate of 43 and 74%, respectively (Table 1).[35] Similarly, the residual substrate of Synta66 in MLM is of 15%, due to an important hydrolysis of the amide group, absent in our class (Table 1).[39]
In vitro metabolism and purity of lead compounds
In vitro metabolism studies
Mouse liver S9 (MLS9) (pooled male mouse CD-1, protein concentration: 20 mg/mL) were purchased from Corning B.V. Life Sciences (Amsterdam, The Netherlands) and used throughout this study. The standard incubation mixture (250 μL final volume) was carried out in a 50 mM TRIS (tris[hydroxymethyl]-aminomethane) + 150 mM KCl buffer (pH 7.4) containing 3.3 mM MgCl2, 1.3 mM β-NADP-Na 2, 3.3 mM glucose 6-phosphate, 0.4 Units/mL glucose 6-phosphate dehydrogenase (NADPH regenerating system), 5 μL of acetonitrile ([…]), and the substrate compounds at a concentration of 50 µM. After pre-equilibration of the mixture, an appropriate volume of MLS9 suspension was added to give a final protein concentration of 1.5 mg/mL. The mixture was shaken for 60 min at 37 °C. Each incubation was stopped by addition of 250 μL of ice-cold acetonitrile, vortexed, and centrifuged at 13000 rpm for 10 min. Control incubations were carried out without the presence of MLS9 suspension or cofactors or in absence of the substrate.
LC-UV method for purity and metabolic stability data determination: a Shimadzu HPLC system (Shimadzu, Kyoto, Japan), consisting of two LC-10AD Vp module pumps, an SLC-10A Vp system controller, an SIL-10AD Vp autosampler, and a DGU-14-A on-line degasser were used for the analysis. The SPD-M10Avp photodiode array detector was used to detect the analytes. LC-Solution 1.24 software was used to process the chromatograms.
• Column: Phenomenex Kinetex XB C18, 150 × 4.6 mm (5 µm d.p.) protected with a SecurityGuard® (Torrance, CA, USA).
A: 0.2% formic acid in water;
B: 0.2% formic acid in acetonitrile.

[2] = test system: calcium entry in resting cells; test: Intracellular Ca2+ in resting cells in the presence of extracellular Ca2+; assay type: cell-based, human; settings: 10 μM, extracellular Ca2+ present, 300 s of observation, compared to control
Procedure: We also investigated whether 37 required the triggered opening of the Orai channel to elicit its effect. […] The same effect was also evident at 3 (118.2%) and 1 μM (116.7%) but was not detected at concentrations above 10. In particular, at 30 and 100 μM, 37 acts as weak SOCE inhibitor, with a percentage of residual activity of about 70%.

[3] = test system: Store-operated calcium entry (SOCE); test: SOCE in HEK cells, tBhQ store depletion and Ca2+ re-addition, Fura-2 calcium imaging; assay type: cell-based, human; settings: for percentage of SOCE activity: compared to control
Procedure: With this approach, 24 oxadiazole-bearing pyrazoles were synthesized and tested in human embryonic kidney (HEK) cells for SOCE inhibition. […] After 600 s, Ca^2+ was added and intracellular levels were measured in fluorescence microscopy with the calcium dye Fura-2. […] For these compounds, the cell viability was therefore evaluated. An MTT assay was performed and the compounds that affected cell viability by more than 25% at 10 μM were discarded (23, 31, and 33). […] According to both activity and cytotoxicity, for the selected five compounds, the representative traces are depicted in Figure 3.
Human embryonic kidney (Hek) cells were obtained from ATCC (Rockville, MD, USA) and were cultured in Dulbecco’s Modified Eagle’s Medium (DMEM; Sigma-Aldrich, Italy), supplemented with 10% heat-inactivated FBS (Gibco, Italy), L-glutamine […] (Sigma-Aldrich, Italy), 10 U/mL penicillin, and […] streptomycin (Sigma-Aldrich, Italy) at 37 °C, under a 5% CO2 humidified atmosphere. […]
(KRB, 135 mM NaCl, 5 mM KCl, 0.4 mM KH2PO4, 1 mM MgSO4, 5.5 mM glucose, 20mM HEPES, pH 7.4) containing 2 mM CaCl2 (30 min, room temperature). After which, cells were washed and incubated with KRB for other 30 min to allow de-esterification of […]. To measure SOCE, cells were depleted of calcium in the endoplasmic reticulum with 2,5-t-butylhydroquinone (tBhQ, 50 […]
For calcium imaging experiments, Hek cells were plated onto pre-treated poli-L-lysine (P4832, Sigma-Aldrich, Italy) glass coverslips of 24 mm in 6-well plates Cells were loaded with 5 µM of Fura-2 AM, 0.02% of Pluronic-127 (Life technologies, Italy) and 10 µM of sulfinpyrazone (Sigma-Aldrich, Italy) in KRB containing 2 mM CaCl2 for 30 min at RT. Cells were then washed once with KRB for 15 min for de-esterification of Fura-2 AM.
Coverslips were mounted into the acquisition chamber and placed on the stage of a Leica DMI6000 epifluorescent microscope equipped with S Fluor ×40/1.3 objective. Fura-2 AM was excited by alternate 340 and 380 nm using a Polychrome IV monochromator (Till Photonics, Germany), and the probe emission light was filtered through 520/20 bandpass filter and collected by a cooled CCD camera (Hamamatsu, Japan). The fluorescence signals were acquired and processed using MetaFluor software (Molecular Device, Sunnyvale, CA, USA). To quantify the differences in the amplitudes of Ca2+ transients, the ratio values were normalized using the formula ΔF/F0. […]
In calcium imaging experiments, data are presented as Mean +/- standard error (SEM) or Median and interquartile range (IQR). The normality of data distributions was assessed using the Shapiro−Wilk test. Nonparametric (Mann−Whitney U test and one-way) statistical analysis was used for comparisons of data. All statistical assessments were two-sided and a value of P <0.05 was considered statistically significant. Statistical analyses were performed using GraphPad Prism software (GraphPad Software, Inc., USA).

With `CCCCCC(=O)Nc1ccc(-n2ncc(-c3nc(C)no3)c2C(F)(F)F)cc1` [compound 37] as the compound, how does the “MLS9 stability (residual substrate)” value [1] read?
Its value is 91% ^b.

What about the “calcium entry in resting cells” value [2] of the same compound?
Its value is “did not elicit any significant calcium entry”.

What about the “percentage of SOCE activity” value ([3]; 1 μM) of the same compound?
Its value is 116.7%.

What about the “percentage of SOCE activity” value ([3]; 3 μM) of the same compound?
The value was 118.2%.

And the “area under the curve (AUC) of calcium entry” value ([3]; 10 μM, vs control)?
Its value is “significantly increased”.

And the “peak amplitude of calcium entry” value ([3]; 10 μM, vs control)?
The value was “significantly increased”.

What about the “slope of the Ca2+-rise” value ([3]; 10 μM, vs control) of the same compound?
The value was “without affecting”.

And the activity at 30 µM ([3]; Homo sapiens, HEK293, 30 μM, read-out: percentage of residual activity (SOCE))?
The activity at 30 µM was about 70%.

And the activity at 100 µM ([3]; Homo sapiens, HEK293, 100 μM, read-out: percentage of residual activity (SOCE))?
The activity at 100 µM was about 70%.

And the activity at 10 µM ([3]; Homo sapiens, HEK293, compound 10 μM, tBhQ 50 μM, vs control, mean ± SEM of three experiments, read-out: % SOCE residual activity (10 μM))?
Its activity at 10 µM is 146 ± 4.5%.
